# Measured values published in patent US11807644B2 (PMV Pharmaceuticals, Inc., priority 2020, dated 2023).
# Target: T1, recombinant His-tag Y220C p53 DBD protein (Homo sapiens, UniProt P04637, Y220C)
# T1 construct: recombinant His-tag Y220C p53 DBD protein (amino acids #˜94-312)
# Experiment: In vitro DNA binding activity assay (TR-FRET): binding of His-tag Y220C p53 DBD to biotin-labeled consensus DNA
# Type: biochemical
# Conditions: SC150 = concentration to increase DNA binding by […], His-tag Y220C p53 DBD, biotin-labeled consensus DNA
row,Compound,Y220C SC150 (μM)
1,"CN1CCC(Nc2cccc3c2cc(-c2cc(N)[nH]n2)n3CC(F)(F)F)CC1 [Compound 21B, 2-(5-amino-1H-pyrazol-3-yl)-N-(1-methylpiperidin-4-yl)-1-(2,2,2-trifluoroethyl)-1H-indol-4-amine]",**** (**** = 1 μM ≤ SC150 < 10 μM)
2,"CC(C)Cn1cccc1C(=O)NCc1nc(-c2cc3c(N[C@@H]4CCN(C)C[C@@H]4F)cccc3n2CC(F)(F)F)no1 [Compound 535B, N-{[3-(4-{[(3S,4R)-3-fluoro-1-methylpiperidin-4-yl]amino}-1-(2,2,2-trifluoroethyl)-1H-indol-2-yl)-1,2,4-oxadiazol-5-yl]methyl}-1-(2-methylpropyl)-1H-pyrrole-2-carboxamide]",* (* = 0 μM ≤ SC150 < 0.1 μM)
3,"CC(C)(C)n1ccc(C(=O)NCc2nc(-c3cc4c(N[C@@H]5CCOC[C@H]5F)cccc4n3CC(F)(F)F)no2)c1 [Compound 512B, 1-tert-butyl-N-{[3-(4-{[(3S,4R)-3-fluorooxan-4-yl]amino}-1-(2,2,2-trifluoroethyl)-1H-indol-2-yl)-1,2,4-oxadiazol-5-yl]methyl}-1H-pyrrole-3-carboxamide]",* (* = 0 μM ≤ SC150 < 0.1 μM)
4,"CN1CCC(Nc2cccc3c2cc(-c2nnc(CNC(=O)Cc4ccccc4)s2)n3CC(F)(F)F)CC1 [Compound 59B, N-[(5-{4-[(1-methylpiperidin-4-yl)amino]-1-(2,2,2-trifluoroethyl)-1H-indol-2-yl}-1,3,4-thiadiazol-2-yl)methyl]-2-phenylacetamide]",** (** = 0.1 μM ≤ SC150 < 0.5 μM)
5,"CN1CC[C@@H](Nc2cccc3c2cc(-c2nc(CNC(=O)c4cncs4)no2)n3CC(F)(F)F)[C@@H](F)C1 (racemic) [Compound 279B, (+/−)-N-{[5-(4-{[(3R,4S)-3-fluoro-1-methylpiperidin-4-yl]amino}-1-(2,2,2-trifluoroethyl)-1H-indol-2-yl)-1,2,4-oxadiazol-3-yl]methyl}-1,3-thiazole-5-carboxamide]",* (* = 0 μM ≤ SC150 < 0.1 μM)
6,"F[C@H]1CNCC[C@H]1Nc1cccc2c1cc(-c1noc(CNc3cn[nH]c3)n1)n2CC(F)(F)F [Compound 203B, N-[(3S,4R)-3-fluoropiperidin-4-yl]-2-(5-{[(1H-pyrazol-4-yl)amino]methyl}-1,2,4-oxadiazol-3-yl)-1-(2,2,2-trifluoroethyl)-1H-indol-4-amine]",* (* = 0 μM ≤ SC150 < 0.1 μM)
7,"C[C@H]1C[C@H]1C(=O)NCc1nnc(-c2cc3c(NC4CCN(C)CC4)cccc3n2CC(F)(F)F)s1 (racemic) [Compound 33B, (+/−)-(1R,2S)-2-methyl-N-[(5-{4-[(1-methylpiperidin-4-yl)amino]-1-(2,2,2-trifluoroethyl)-1H-indol-2-yl}-1,3,4-thiadiazol-2-yl)methyl]cyclopropane-1-carboxamide]",** (** = 0.1 μM ≤ SC150 < 0.5 μM)
8,"COc1ccc(C(=O)NCc2nc(-c3cc4c(N[C@@H]5CCN(C)C[C@@H]5F)cccc4n3CC(F)(F)F)no2)cc1 [Compound 295B, N-{[3-(4-{[(3S,4R)-3-fluoro-1-methylpiperidin-4-yl]amino}-1-(2,2,2-trifluoroethyl)-1H-indol-2-yl)-1,2,4-oxadiazol-5-yl]methyl}-4-methoxybenzamide]",* (* = 0 μM ≤ SC150 < 0.1 μM)
9,CN1CC[C@@H](Nc2cccc3c2cc(-c2noc(CNC(=O)c4ccc(C5(C)CC5)s4)n2)n3CC(F)(F)F)[C@@H](F)C1 [Compound 446B],* (* = 0 μM ≤ SC150 < 0.1 μM)
10,"CN1CC[C@H](Nc2cccc3c2cc(-c2nnc(CNC(=O)C4CC4)s2)n3CC(F)(F)F)[C@H](F)C1 [Compound 48B, N-{[5-(4-{[(3R,4S)-3-fluoro-1-methylpiperidin-4-yl]amino}-1-(2,2,2-trifluoroethyl)-1H-indol-2-yl)-1,3,4-thiadiazol-2-yl]methyl}cyclopropanecarboxamide]",* (* = 0 μM ≤ SC150 < 0.1 μM)
11,"CN1CCC(Nc2cccc3c2cc(-c2nnc(CNC(=O)c4ccc(CN5CCOCC5)cc4)s2)n3CC(F)(F)F)CC1 [Compound 45B, N-[(5-{4-[(1-methylpiperidin-4-yl)amino]-1-(2,2,2-trifluoroethyl)-1H-indol-2-yl}-1,3,4-thiadiazol-2-yl)methyl]-4-[(morpholin-4-yl)methyl]benzamide]",* (* = 0 μM ≤ SC150 < 0.1 μM)
12,"COC[C@H]1CCCN1c1nc(C(=O)NCc2nc(-c3cc4c(N[C@@H]5CCN(C)C[C@@H]5F)cccc4n3CC(F)(F)F)no2)cs1 [Compound 520B, N-{[3-(4-{[(3S,4R)-3-fluoro-1-methylpiperidin-4-yl]amino}-1-(2,2,2-trifluoroethyl)-1H-indol-2-yl)-1,2,4-oxadiazol-5-yl]methyl}-2-[(2R)-2-(methoxymethyl)pyrrolidin-1-yl]-1,3-thiazole-4-carboxamide]",* (* = 0 μM ≤ SC150 < 0.1 μM)
13,"CN1CC[C@@H](Nc2cccc3c2cc(-c2noc(CNC(=O)c4ccn(C5CCC(F)(F)C5)c4)n2)n3CC(F)(F)F)[C@@H](F)C1 (stereo partly drawn) [Compound 347B, 1-(3,3-difluorocyclopentyl)-N-{[3-(4-{[(3S,4R)-3-fluoro-1-methylpiperidin-4-yl]amino}-1-(2,2,2-trifluoroethyl)-1H-indol-2-yl)-1,2,4-oxadiazol-5-yl]methyl)-1H-pyrrole-3-carboxamide]",* (* = 0 μM ≤ SC150 < 0.1 μM)
14,"COC(C)(C)c1ccc(C(=O)NCc2nc(-c3cc4c(N[C@@H]5CCN(C)C[C@@H]5F)cccc4n3CC(F)(F)F)no2)s1 [Compound 439B, N-{[3-(4-{[(3S,4R)-3-fluoro-1-methylpiperidin-4-yl]amino}-1-(2,2,2-trifluoroethyl)-1H-indol-2-yl)-1,2,4-oxadiazol-5-yl]methyl}-5-(2-methoxypropan-2-yl)thiophene-2-carboxamide]",* (* = 0 μM ≤ SC150 < 0.1 μM)
15,"CN1CC[C@@H](Nc2cccc3c2cc(-c2noc(CNC(=O)c4ccsc4)n2)n3CC(F)(F)F)[C@@H](F)C1 [Compound 189B, N-{[3-(4-{[(3S,4R)-3-fluoro-1-methylpiperidin-4-yl]amino}-1-(2,2,2-trifluoroethyl)-1H-indol-2-yl)-1,2,4-oxadiazol-5-yl]methyl}thiophene-3-carboxamide]",* (* = 0 μM ≤ SC150 < 0.1 μM)
16,"CN1CC[C@@H](F)[C@@H](Nc2cccc3c2cc(-c2noc(CNC(=O)c4ccn(C5(C)CCOCC5)c4)n2)n3CC(F)(F)F)C1 [Compound 419B, N-{[3-(4-{[(3S,4R)-4-fluoro-1-methylpiperidin-3-yl]amino}-1-(2,2,2-trifluoroethyl)-1H-indol-2-yl)-1,2,4-oxadiazol-5-yl]methyl}-1-(4-methyloxan-4-yl)-1H-pyrrole-3-carboxamide]",* (* = 0 μM ≤ SC150 < 0.1 μM)
17,"Cc1nn(C(C)C)cc1C(=O)NCc1nc(-c2cc3c(N[C@@H]4CCN(C)C[C@@H]4F)cccc3n2CC(F)(F)F)no1 [Compound 311B, N-{[3-(4-{[(3S,4R)-3-fluoro-1-methylpiperidin-4-yl]amino}-1-(2,2,2-trifluoroethyl)-1H-indol-2-yl)-1,2,4-oxadiazol-5-yl]methyl}-3-methyl-1-(propan-2-yl)-1H-pyrazole-4-carboxamide]",* (* = 0 μM ≤ SC150 < 0.1 μM)
18,"CN1CC[C@@H](Nc2cccc3c2cc(-c2cc(CNC(=O)c4cnn(C(C)(C)C)c4)on2)n3CC(F)(F)F)[C@@H](F)C1 [Compound 554B, 1-tert-butyl-N-{[3-(4-{[(3S,4R)-3-fluoro-1-methylpiperidin-4-yl]amino}-1-(2,2,2-trifluoroethyl)-1H-indol-2-yl)-1,2-oxazol-5-yl]methyl}-1H-pyrazole-4-carboxamide]",* (* = 0 μM ≤ SC150 < 0.1 μM)
19,"O=C(NCc1nc(-c2cc3c(NCC4CNC4)cccc3n2CC(F)(F)F)no1)C1CC1 [Compound 170B, N-{[3-(4-{[(432zetidine-3-yl)methyl]amino}-1-(2,2,2-trifluoroethyl)-1H-indol-2-yl)-1,2,4-oxadiazol-5-yl]methyl}cyclopropanecarboxamide]",* (* = 0 μM ≤ SC150 < 0.1 μM)
20,"CN1CC[C@@H](Nc2cccc3c2cc(-c2noc(CNC(=O)c4ccn(C5CCC(F)C5)c4)n2)n3CC(F)(F)F)[C@@H](F)C1 (stereo partly drawn) [Compound 345B, N-{[3-(4-{[(3S,4R)-3-fluoro-1-methylpiperidin-4-yl]amino}-1-(2,2,2-trifluoroethyl)-1H-indol-2-yl)-1,2,4-oxadiazol-5-yl]methyl}-1-(3-fluorocyclopentyl)-1H-pyrrole-3-carboxamide]",* (* = 0 μM ≤ SC150 < 0.1 μM)
21,"CC(=O)NCc1nnc(-c2cc3c(NC4CCN(C)CC4)cccc3n2CC(F)(F)F)s1 [Compound 58B, N-[(5-{4-[(1-methylpiperidin-4-yl)amino]-1-(2,2,2-trifluoroethyl)-1H-indol-2-yl}-1,3,4-thiadiazol-2-yl)methyl]acetamide]",** (** = 0.1 μM ≤ SC150 < 0.5 μM)
22,"CN1CC[C@H](Nc2cccc3c2cc(-c2nnc(CNC(=O)c4cccs4)s2)n3CC(F)(F)F)[C@H](F)C1 (racemic) [Compound 30B, (+/−)-N-{[5-(4-{[(3R,4S)-3-fluoro-1-methylpiperidin-4-yl]amino}-1-(2,2,2-trifluoroethyl)-1H-indol-2-yl)-1,3,4-thiadiazol-2-yl]methyl}thiophene-2-carboxamide]",* (* = 0 μM ≤ SC150 < 0.1 μM)
23,"CN1CC[C@H](Nc2cccc3c2cc(-c2noc(CNC(=O)C4CC4)n2)n3CC(F)(F)F)[C@H](F)C1 [Compound 174B, N-{[3-(4-{[(3R,4S)-3-fluoro-1-methylpiperidin-4-yl]amino}-1-(2,2,2-trifluoroethyl)-1H-indol-2-yl)-1,2,4-oxadiazol-5-yl]methyl}cyclopropanecarboxamide]",* (* = 0 μM ≤ SC150 < 0.1 μM)
24,"CN1CC[C@@H](Nc2cccc3c2cc(-c2noc(CNc4ccn[nH]4)n2)n3CC(F)(F)F)[C@@H](F)C1 [Compound 230B, N-[(3S,4R)-3-fluoro-1-methylpiperidin-4-yl]-2-(5-{[(1H-pyrazol-5-yl)amino]methyl}-1,2,4-oxadiazol-3-yl)-1-(2,2,2-trifluoroethyl)-1H-indol-4-amine]",* (* = 0 μM ≤ SC150 < 0.1 μM)
